Measured values from patent publication US11850246B2, “Method for treatment of cytokine release syndrome” (NOVMETAPHARMA CO., LTD., priority 2020, dated 2023).

Legend:
macrophage = assay: Anti-inflammatory effect on LPS-activated macrophage: activation surface markers by flow cytometry; type: cell-based; settings: 5 μM compound; macrophage activated with 100 ng/mL LPS; 24 hours after LPS treatment; flow cytometry (FIG. 1A-1C)
Method: Dysregulation of immune activation in innate immune cell is the main factor initiating cytokine release syndrome. Immune regulatory effects of the compound of Chemical Formula 1 on macrophage were assessed employing compound 18a (DMRC200434). 5 μM DMRC200434 was treated on activated macrophage with 100 ng/mL lipopolysaccharide (LPS) (Sigma-Aldrich). 24 hours after LPS treatment, activation markers (CD40, CD80, CD86) were measured by flow cytometry.

[1] = tested on: LPS induced endotoxemia model; assay: LPS induced endotoxemia model, survival; type: in vivo, C57BL/6 mice; settings: 30 mg/kg injected 24 hours prior to and at start of LPS (50 mg/kg) injection; survival observed for 50 hours (FIG. 2)
Method: 6 to 8-week female C57BL/6 mice (Jackson Lab) were used according to an animal protocol approved by the Institutional Animal Care and Use Committee of Kyungpook National University.
Compound of Chemical Formula 1 (DMRC200434, 30 mg/kg) was dissolved in a solution of 5%—DMSO: 95%—20% PEG400(Saline) and was injected at two points—at 24 hours prior to, and at the start of LPS (50 mg/kg) injection.
The inventors analyzed the efficacy of a compound of Chemical Formula 1 in vivo on LPS-induced endotoxemia model employing DMRC200434. To assess the effect of DMRC200434 on endotoxemia, DMRC200434 was treated on LPS induced endotoxemia model.

CC(C)N1CCN(c2ccc(/C(=C(/CCCO)c3ccccc3)c3ccc(O)cc3)cc2)CC1 [DMRC200434, (E)-5-(4-hydroxyphenyl)-5-(4-(4-isopropylpiperazin-1-yl)phenyl)-4-phenylpent-4-en-1-ol]
expression of inflammatory surface marker CD40 (macrophage): downregulated
expression of inflammatory surface marker CD80 (macrophage): downregulated
expression of inflammatory surface marker CD86 (macrophage): downregulated
endotoxin mediated death (survival) [1]: significantly delayed
